Source: US9187413B2, “Peripherally restricted FAAH inhibitors” (The Regents of the University of California, priority 2010, dated 2015)

Columns and labels:
[1] = tested on: Fos protein; assay: Formalin-induced Fos expression in lumbar spinal cord; format: in vivo; conditions: rats, URB937 1 mg-kg^-1, i.p., lumbar spinal cord
Procedure: Fos expression. We measured Fos protein levels by quantitative immunocytochemistry^5 on slices of lumbar (L4/L5) spinal cord from male Sprague-Dawley rats.
Fos immunohistochemistry Two hours after formalin injection into the dorsal paw, rats received a lethal dose of Nembutal (50 mg-mL^−1). They were perfused through the heart with 100 mL of 1% heparinized phosphate buffered saline (PBS) followed by 300 mL of ice-cold 4% paraformaldehyde. The lumbar-sacral region of the spinal cord was collected from each rat. Spinal cords were post fixed in 4% paraformaldehyde at 4° C. for 24 h and then cryoprotected in 30% sucrose at 4° C. for 24-48 hours. Spinal cords were cryostat-cut into 40 μm transverse sections at the level of the lumbar enlargement (L4/L5). Free floating alternating sections were kept in a series of wells filled with PBS. Every fourth section was processed for Fos immunoreactivity to ensure that the same cell would not be counted twice. Endogenous peroxidases were inactivated by incubation in hydrogen peroxide. […]
Selection of sections and quantification of the number of Fos-positive cells was performed by an observer blinded to experimental conditions. […] Using Image J, Fos expressing cells were counted in each subdivision, regardless of staining intensity, by an observer blinded to experimental treatments.

[2] = Tissue distribution of URB937 by LC/MS; format: in vivo; conditions: mice, 1 mg-kg^-1, i.p.
Procedure: Tissue analyses. We performed tissue extractions and liquid chromatography/mass spectrometry analyses of endocannabinoids as described^38. Similar procedures were utilized for the tissue extraction and LC/MS quantification of URB937, as detailed further below.
Tissue extractions Mice were sacrificed with isoflurane and tissues were collected and immediately frozen in liquid nitrogen. Frozen tissues were weighed and homogenized in methanol (1 mL) containing [^2H4]-anandamide, [^2H4]-PEA, [^2H8]-2-AG, and N-cyclohexyl biphenyl-3-ylacetamide as internal standards. Analytes were extracted with chloroform (2 vol) and washed with water (1 vol). Organic phases were collected and dried under nitrogen. The non-fractionated organic extract was used for quantification of URB937. For other analyses the organic extract was fractionated by open-bed silica gel column chromatography, as described^43. Briefly, the extract was dissolved in chloroform and loaded onto small glass columns packed with Silica Gel G (60˜A 230-400 Mesh ASTM; Whatman, Clifton, N.J.). […]
Mobile phase A consisted of methanol containing 0.25% acetic acid, 5 mM ammonium acetate; mobile phase B consisted of water containing 0.25% acetic acid, 5 mM ammonium acetate. […] Na^+ adducts ([M+Na^+]) of analytes and internal standards were monitored in the selective ion-monitoring mode. Limit of quantification was 0.4 pmol.

[3] = Drug distribution coefficient n-octanol/buffer pH 7.4; format: physicochemical; conditions: n-octanol / aqueous buffer pH 7.4, 25±1° C., mean±sem, n=3; read-out: distribution coefficient, Log Doct,pH7.4
Procedure: Drug distribution coefficients. We determined Log D7.4,oct values at room temperature (25±1° C.) partitioning the solutes between n-octanol and an aqueous solution buffered at pH 7.4^36.

NC(=O)c1cccc(-c2cc(OC(=O)NC3CCCCC3)ccc2O)c1 [Compound 1b, cyclohexylcarbamic acid 3′-carbamoyl-6-hydroxybiphenyl-3-yl ester]
formalin-induced Fos expression [1]: lowered the Fos response to formalin
URB937 level in brain tissue after systemic administration [2]: undetectable
logD [3]: 3.03 ± 0.01
